Experimental data published in US20050054025A1 (priority 2003, published 2005).
≈ marks a conversion by molar mass, not a printed value. Marks after values point to notes of the source that are not given here.

What was measured:
acetylcholinesterase [1] = target: acetylcholinesterase (Homo sapiens, UniProt P22303); assay: biochemical; type: biochemical; details: for IC20: read-out: Porex Dot Test IC20
acetylcholinesterase [2] = details: cited from earlier work

Chain of acetylcholinesterase (Homo sapiens, UniProt P22303) (P22303 32-614, species assumed): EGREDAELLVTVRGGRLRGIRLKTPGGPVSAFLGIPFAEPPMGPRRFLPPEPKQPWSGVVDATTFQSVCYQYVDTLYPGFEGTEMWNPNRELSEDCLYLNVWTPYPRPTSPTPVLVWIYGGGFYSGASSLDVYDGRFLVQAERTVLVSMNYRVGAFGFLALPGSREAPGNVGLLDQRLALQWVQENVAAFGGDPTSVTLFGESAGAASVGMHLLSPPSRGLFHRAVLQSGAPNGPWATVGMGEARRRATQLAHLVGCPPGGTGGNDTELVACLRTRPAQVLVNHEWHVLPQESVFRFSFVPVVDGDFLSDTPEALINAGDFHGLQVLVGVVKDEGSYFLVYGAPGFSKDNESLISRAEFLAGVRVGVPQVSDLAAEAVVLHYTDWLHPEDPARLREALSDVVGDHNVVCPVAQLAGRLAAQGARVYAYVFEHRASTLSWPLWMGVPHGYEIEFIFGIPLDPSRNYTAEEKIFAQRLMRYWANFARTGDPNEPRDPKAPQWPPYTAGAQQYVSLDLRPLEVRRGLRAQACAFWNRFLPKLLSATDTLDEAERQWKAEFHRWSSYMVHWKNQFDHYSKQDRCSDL

| Structure (SMILES) | IC20 (acetylcholinesterase [1]) [ng/mL] | EnviroLogix IC20 (acetylcholinesterase [2]) [μg/L] | other results |
| --- | --- | --- | --- |
| CNC(=O)ON=C(C)SC [Methomyl] | 0.011 (≈ 0.0678 nM) |  |  |
| CNC(=O)Oc1cccc2c1OC(C)(C)C2 [Carbofuran] | 0.4 (≈ 1.81 nM) | 40 |  |
| CNC(=O)Oc1cccc2ccccc12 [Carbaryl] | 9 (≈ 44.7 nM) | 110 |  |
| CCOP(=O)(OCC)Oc1ccc([N+](=O)[O-])cc1 [Paraoxon] |  |  | detectable amount using instrument detection (acetylcholinesterase [1]): about 0.5 ng/mL; detectable level, determined visually (acetylcholinesterase [1]): 10 ng/mL |
| CNC(=O)O/N=C(\SC)C(=O)N(C)C [Oxymyl] |  | 100 | Porex Dot Test IC20 (acetylcholinesterase [1]): 16.7 ng/mL |
| CCOP(=S)(OCC)Oc1nc(Cl)c(Cl)cc1Cl [Chloropyrifos] |  | 5.2 | IC50 (acetylcholinesterase [1]): 0.285 nM |
| CCOP(=S)(OCC)Oc1cc(C)nc(C(C)C)n1 [Diazinon] | 0.14 (≈ 0.46 nM) |  | EnviroLogix IC50 (cells marked *) (acetylcholinesterase [2]): 3.0* μg/L |
| CCOP(=S)(OCC)SCSC(C)(C)C [Terbufos] | 143 (≈ 496 nM) |  | EnviroLogix IC50 (cells marked *) (acetylcholinesterase [2]): 12* μg/L |
| CNC(=O)Oc1ccccc1OC(C)C [Baygon (propoxur), propoxur] | 9 (≈ 43 nM) | 50 |  |
| CCOP(=S)(OCC)SCCSCC [Disulfoton] | 0.5 (≈ 1.82 nM) |  |  |
| CNC(=O)O/N=C/C(C)(C)SC [Aldicarb] | 33 (≈ 173 nM) |  |  |
| CCOC(=O)CC(SP(=S)(OC)OC)C(=O)OCC (stereo not drawn) [Malithion] |  | 60 | Porex Dot Test IC20 (acetylcholinesterase [1]): 0.11 ng/mL |
